Read-outs that look alike come from different tables or passages of the source.
What was measured:
[1] = Storage stability of aqueous solutions of Brivaracetam; assay type: physicochemical; details: aqueous solution
Excerpt: Also degradation products in solution are formed due to oxidation, pH ranges.

[2] = cited from earlier work

CCC[C@@H]1CC(=O)N([C@@H](CC)C(N)=O)C1 [Brivaracetam, (2S)-2-[(4R)-2-oxo-4-propyltetrahydro-1H-pyrrol-1-yl]butanamide]
Stability during storage [1]: partially unstable
Solubility ([2]; acetone): freely soluble
Solubility ([2]; acetonitrile): freely soluble
Solubility ([2]; buffer (pH 1.2, 4.5, and 7.4)): very soluble
Solubility ([2]; ethanol): very soluble
Solubility ([2]; glacial acetic acid): very soluble
Solubility ([2]; methanol): very soluble
Solubility ([2]; n-hexane): very slightly soluble
Solubility ([2]; toluene): soluble
Solubility ([2]; water): very soluble

Source: US20210393588A1, “READY TO USE I[…] OF BR[…] SALT THEREOF” (Zenvision Pharma LLP, priority 2018, published 2021)
